Data published in US10953012B2, “Heterocyclic compounds for the inhibition of pask” (BioEnergenix LLC, priority 2011, dated 2021).

These compounds were tested against PASK (Homo sapiens (Human), UniProt Q96RG2) (assay: PAS Kinase FRET Assay). Details: TR-FRET assay; read-out: IC50 Kinase Domain.
Assay type: biochemical
Text: The aim of the FRET assay is to determine the inhibition potential of test compounds on targeted kinase. This assay platform provides a homogenous screening method for measuring kinase activity by quantitating the amount of phospho-substrate in solution following a kinase reaction.
In the presence of kinase and ATP, the Ulight-peptide is phosphorylated and captured by an anti-phospho-substrate antibody, which brings the Eu chelate donor and Ulight acceptor dyes into close proximity. Upon excitation at 340 nm, the Eu chelate transfers its energy to the Ulight dye, resulting in a fluorescent light emission at 665 nm
Titration of kinase at 1 mM ATP was achieved via the following protocol. After making serial three-fold dilutions of PASK (Invitrogen) in reaction buffer across the plate; 5 μl of kinase dilution and 5 μl substrate/ATP mix were added to the wells of the white Optiplate-384 (PerkinElmer). The contents of the plate were and incubated at RT for 1 h. The reaction was stopped by adding 5 μl of stop solution to each test well followed by mixing and incubation at RT for 10 minutes. 5 μl of detection mix (detection antibody diluted in detection buffer) was added; the contents of the plate were mixed and then incubated in the dark for 1 hour at RT. The signal was recorded at TR-FRET mode (665 nm/615 nm). The results were graphed to calculate the EC50.
Titration of ATP at the EC50 concentration of kinase to determine ATP Km, app. was performed using the following method. After making serial dilutions of ATP (Invitrogen), 5 μl of ATP dilution and 5 μl substrate/kinase mix were added to the wells of the white Optiplate-384 (PerkinElmer). The contents of the plate were and incubated at RT for 1 h. The reaction was stopped by adding 5 μl of stop solution to each test well followed by mixing and incubation at RT for 10 minutes. 5 μl of detection mix (detection antibody diluted in detection buffer) was added; the contents of the plate were mixed and then incubated in the dark for 1 hour at RT. The signal was recorded at TR-FRET mode (665 nm/615 nm). The results were graphed to calculate the EC50 as the ATP Km, app.
Compound screening was done via the following method. 10 mM stock solution of test compound in DMSO was prepared by dissolving test compound in DMSO at RT for 1 hour, and then sonicating at 100% output for 8 minutes. If compound is not soluble under this condition, it was diluted to 3 mM. Kinase reaction buffer was prepared containing 10 mM MgCl2, 50 mM HEPES, 1 mM EGTA, 0.01% TWEEN-20, 2 mM DTT. Serial dilutions of the test compounds were prepared at 4×final assay concentrations using Freedom EVO200® dispensing system as follows: 12×10^−5 M, 4×10^−5 M, 1.33×10^−5 M, 4.44×10^−6 M, 1.48×10^−6 M, 4.92×10^−7 M, 1.65×10^−7 M, […], 1.82×10^−8M, 6.09×10^−9, 2.03×10^−9 M. Test compounds (2.5 μl at 4× the final assay concentration) was added to wells using Freedom EVO200® dispensing system. As a positive control, 2.5 μl of positive compound was added to assay wells, and 2.5 μl of DMSO to assay wells as vehicle control. Kinase solution was prepared in reaction buffer at 2×final assay concentration. Kinase solution (5 μl) was added to each well of the assay plate. The substrate and ATP solution was prepared in kinase reaction buffer at 4×final assay concentration. The kinase reaction was started by adding 2.5 μl of substrate+ATP mix solution to each well of the assay plate. The plate is mixed on a plate shaker; then covered and allowed to react for 2 hours in the dark at 25° C. without shaking. The reaction was stopped by adding 5 μl of stop solution to each test well followed by mixing and incubation at RT for 10 minutes in the dark. 5 μl of detection mix (detection antibody diluted in detection buffer) was added; the contents of the plate were mixed and then incubated in the dark for 1 hour at RT. The signal was recorded at TR-FRET mode (665 nm/615 nm).

PASK, sequence (Q96RG2 999-1251): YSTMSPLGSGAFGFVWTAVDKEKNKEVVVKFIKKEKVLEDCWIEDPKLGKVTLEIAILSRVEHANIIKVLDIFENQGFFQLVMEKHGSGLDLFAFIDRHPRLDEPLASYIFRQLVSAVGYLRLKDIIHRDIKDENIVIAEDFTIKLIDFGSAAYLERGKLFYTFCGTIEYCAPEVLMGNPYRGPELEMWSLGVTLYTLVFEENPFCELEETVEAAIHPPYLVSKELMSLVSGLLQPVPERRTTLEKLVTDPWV

Row | Structure (SMILES) | IC50 [µM]
1 | CCCc1cnn2c(=O)cc(-c3ccc4c(c3)OCO4)[nH]c12 [Example 134, 5-(Benzo[d][1,3]dioxol-5-yl)-3-propylpyrazolo[1,5-a]pyrimidin-7(4H)-one] | ≤ 10
2 | COc1cc(Cl)ccc1-c1cc(=O)n2ncc(-c3ccccn3)c2[nH]1 [Example 136, 5-(4-Chloro-2-methoxyphenyl)-3-(pyridin-2-yl)pyrazolo[1,5-a]pyrimidin-7(4H)-one] | ≤ 10
3 | COc1nn2c(=O)cc(-c3ccc(Cl)cc3)[nH]c2c1C#N [Example 138, 5-(4-Chlorophenyl)-2-methoxy-7-oxo-4,7-dihydropyrazolo[1,5-a]pyrimidine-3-carbonitrile] | ≤ 10
4 | N#Cc1c(O)nn2c(=O)cc(-c3ccc(Cl)cc3)[nH]c12 [Example 139, 5-(4-Chlorophenyl)-2-hydroxy-7-oxo-4,7-dihydropyrazolo[1,5-a]pyrimidine-3-carbonitrile] | ≤ 10
5 | CS(=O)(=O)c1ccc(-c2cc(=O)n3ncc(-c4ccccn4)c3[nH]2)cc1 [Example 140, 5-(4-(Methylsulfonyl)phenyl)-3-(pyridin-2-yl)pyrazolo[1,5-a]pyrimidin-7(4H)-one] | ≤ 10
6 | O=C(c1cnn2c(=O)cc(-c3ccc4c(c3)OCCO4)[nH]c12)N1CCCC1 [Example 146, 5-(2,3-Dihydrobenzo[b][1,4]dioxin-6-yl)-3-(pyrrolidine-1-carbonyl)pyrazolo[1,5-a]pyrimidin-7(4H)-one] | ≤ 10
7 | Nc1nn2c(=O)cc(-c3cc4ccccc4o3)[nH]c2c1-c1ccccn1 [Example 151, 2-Amino-5-(benzofuran-2-yl)-3-(pyridin-2-yl)pyrazolo[1,5-a]pyrimidin-7(4H)-one] | ≤ 10
8 | Nc1nn2c(=O)cc(-c3ccc(Cl)c(Cl)c3)[nH]c2c1-c1ccccn1 [Example 153, 2-Amino-5-(3,4-dichlorophenyl)-3-(pyridin-2-yl)pyrazolo[1,5-a]pyrimidin-7(4H)-one] | ≤ 10
9 | O=c1cc(-c2ccccc2)[nH]c2c(-c3cccnc3)c(O)nn12 [Example 154, 2-Hydroxy-5-phenyl-3-(pyridin-3-yl)pyrazolo[1,5-a]pyrimidin-7(4H)-one] | ≤ 10
10 | COc1nn2c(=O)cc(-c3ccc4c(c3)OCO4)[nH]c2c1-c1ccccn1 [Example 157, 5-(Benzo[d][1,3]dioxol-5-yl)-2-methoxy-3-(pyridin-2-yl)pyrazolo[1,5-a]pyrimidin-7(4H)-one] | ≤ 10
11 | O=c1cc(-c2ccc(Cl)cc2F)[nH]c2c(-c3ccccn3)cnn12 [Example 162, 5-(4-Chloro-2-fluorophenyl)-3-(pyridin-2-yl)pyrazolo[1,5-a]pyrimidin-7(4H)-one] | ≤ 10
12 | Nc1nn2c(=O)cc(-c3ccc4occc4c3)[nH]c2c1-c1ccccn1 [Example 165, 2-Amino-5-(benzofuran-5-yl)-3-(pyridin-2-yl)pyrazolo[1,5-a]pyrimidin-7(4H)-one] | ≤ 10
13 | Cc1coc2ccc(-c3cc(=O)n4nc(N)c(-c5ccccn5)c4[nH]3)cc12 [Example 166, 2-Amino-5-(3-methylbenzofuran-5-yl)-3-(pyridin-2-yl)pyrazolo[1,5-a]pyrimidin-7(4H)-one] | ≤ 10
14 | Cc1coc2ccc(-c3cc(=O)n4ncc(-c5ccccn5)c4[nH]3)cc12 [Example 167, 5-(3-Methylbenzofuran-5-yl)-3-(pyridin-2-yl)pyrazolo[1,5-a]pyrimidin-7(4H)-one] | ≤ 10
15 | Cc1coc2ccc(-c3cc(=O)n4nc(O)c(-c5ccccn5)c4[nH]3)cc12 [Example 168, 2-Hydroxy-5-(3-methylbenzofuran-5-yl)-3-(pyridin-2-yl)pyrazolo[1,5-a]pyrimidin-7(4H)-one] | ≤ 10
16 | Cc1cc2cc(-c3cc(=O)n4ncc(-c5ccccn5)c4[nH]3)ccc2o1 [Example 169, 5-(2-Methylbenzofuran-5-yl)-3-(pyridin-2-yl)pyrazolo[1,5-a]pyrimidin-7(4H)-one] | ≤ 10
17 | Cc1cc2cc(-c3cc(=O)n4nc(N)c(-c5ccccn5)c4[nH]3)ccc2o1 [Example 170, 2-Amino-5-(2-methylbenzofuran-5-yl)-3-(pyridin-2-yl)pyrazolo[1,5-a]pyrimidin-7(4H)-one] | ≤ 10
18 | Nc1nn2c(=O)cc(-c3ccc(C(F)(F)F)cc3)[nH]c2c1-c1ccccn1 [Example 172, 2-amino-3-(pyridin-2-yl)-5-(4-(trifluoromethyl)phenyl)pyrazolo[1,5-a]pyrimidin-7(411)-one] | ≤ 10
19 | O=c1cc(-c2ccc(C(F)(F)F)cc2)[nH]c2c(-c3ccccn3)cnn12 [Example 173, 3-(Pyridin-2-yl)-5-(4-(trifluoromethyl)phenyl)pyrazolo[1,5-a]pyrimidin-7(4H)-one] | ≤ 10
20 | Nc1nn2c(=O)cc(-c3cccc(F)c3)[nH]c2c1-c1ccccn1 [Example 174, 2-Amino-5-(3-fluorophenyl)-3-(pyridin-2-yl)pyrazolo[1,5-a]pyrimidin-7(4H)-one] | ≤ 10
21 | O=c1cc(-c2cccc(F)c2)[nH]c2c(-c3ccccn3)cnn12 [Example 175, 5-(3-Fluorophenyl)-3-(pyridin-2-yl)pyrazolo[1,5-a]pyrimidin-7(4H)-one] | ≤ 10
22 | Nc1nn2c(=O)cc(-c3ccc(F)cc3F)[nH]c2c1-c1ccccn1 [Example 176, 2-Amino-5-(2,4-difluorophenyl)-3-(pyridin-2-yl)pyrazolo[1,5-a]pyrimidin-7(4H)-one] | ≤ 10
23 | O=c1cc(-c2ccc(F)cc2F)[nH]c2c(-c3ccccn3)cnn12 [Example 177, 5-(2,4-Difluorophenyl)-3-(pyridin-2-yl)pyrazolo[1,5-a]pyrimidin-7(4H)-one] | ≤ 10
24 | CCCNC(=O)c1c(N)nn2c(=O)cc(-c3ccc4c(c3)OCO4)[nH]c12 [Example 178, 2-Amino-5-(benzo[d][1,3]dioxol-5-yl)-7-oxo-N-propyl-4,7-dihydropyrazolo[1,5-a]pyrimidine-3-carboxamide] | ≤ 10
25 | CCC(=O)Nc1nn2c(=O)cc(-c3ccc4c(c3)OCO4)[nH]c2c1-c1ccccn1 [Example 180, N-(5-(Benzo[d][1,3]dioxol-5-yl)-7-oxo-3-(pyridin-2-yl)-4,7-dihydropyrazolo[1,5-a]pyrimidin-2-yl)propionamide] | ≤ 10
26 | CC(C)C(=O)Nc1nn2c(=O)cc(-c3ccc4c(c3)OCO4)[nH]c2c1-c1ccccn1 [Example 181, N-(5-(Benzo[d][1,3]dioxol-5-yl)-7-oxo-3-(pyridin-2-yl)-4,7-dihydropyrazolo[1,5-a]pyrimidin-2-yl)isobutyramide] | ≤ 10
27 | CC(=O)Nc1nn2c(=O)cc(-c3ccc4[nH]ncc4c3)[nH]c2c1-c1ccccn1 [Example 182, N-(5-(1H-Indazol-5-yl)-7-oxo-3-(pyridin-2-yl)-4,7-dihydropyrazolo[1,5-a]pyrimidin-2-yl)acetamide] | ≤ 10
28 | CCc1nn2c(=O)cc(-c3ccc4[nH]ncc4c3)[nH]c2c1-c1ccccn1 [Example 183, 2-Ethyl-5-(1H-indazol-5-yl)-3-(pyridin-2-yl)pyrazolo[1,5-a]pyrimidin-7(4H)-one] | ≤ 10
29 | Cn1ncc2cc(-c3cc(=O)n4nc(N)c(-c5ccccn5)c4[nH]3)ccc21 [Example 184, 2-Amino-5-(1-methyl-1H-indazol-5-yl)-3-(pyridin-2-yl)pyrazolo[1,5-a]pyrimidin-7(4H)-one] | ≤ 10
30 | Cc1nn2c(=O)cc(-c3ccc4[nH]nnc4c3)[nH]c2c1Cc1ccccc1 [Example 185, 5-(1H-Benzo[d][1,2,3]triazol-5-yl)-3-benzyl-2-methylpyrazolo[1,5-a]pyrimidin-7(4H)-one] | ≤ 10
